Measured values taken from US10966943B2, “Methods and compositions for treatment of asthma or parkinson's disease” (InnoPharmaScreen Inc., priority 2018, dated 2021).
Entries after “also recorded” stand apart in the source; their conditions may differ.

Assays:
OVA-challenged mice = test: OVA-induced asthma in mice (BAL fluid, IgE, lung histology); format: in vivo
Experimental: 25 mg Ovalbumin (OVA) and 1 mg aluminum hydroxide hydrate (AlOH3) were dissolved in […] of sterile saline solution and sensitized by intraperitoneal administration at 0 and 21 days. At the end of the observation period, all living animals were anesthetized using Isoflurane, and blood was collected from the vena cava/abdominal aorta. Lungs are removed and washed with sterile saline solution. […] of sterile saline was filled in a 1 mL syringe, and the injection and recovery were repeated three times. The washed solution was lightly centrifuged (300 rpm, 10 minutes) and the supernatant was frozen and used for analysis of CXCL1 (ab216951, Abcam PLC) IL-17A (ab199081, Abcam PLC) and CCL3 (ab100726, Abcam PLC). The precipitate was resuspended in the same amount of sterile saline solution and used for eosinophil count and total cell count. The collected blood was left at room temperature for 30 minutes and centrifuged at 3,000 rpm for 20 mins. to separate serum and used for total IgE and Ova-specific IgE analysis. Histopathological examination was performed using lung tissue fixed in formalin. Lung tissues extracted at autopsy were placed in a cassette and submerged in 10% Neutral buffered formalin (10% NBF) at least 20 times the tissue volume. After fixation, the tissue was cut to about 4 mm in thickness and fabricated into paraffin blocks after general tissue treatment and embedding. […]

IL-6 = test: ELISA of IL-6 in A549 cells induced by LPS or IL-1beta; format: cell-based, human; settings: dose-dependent
Experimental: (§1) A549 cells (1×10^5/well) were seeded on a 96-well plate for 16 hrs. After starvation for 24 hrs., the cells were pretreated with LPS or IL-1beta for 4 hrs. The cells were then treated with IPS-07004 for 24 hrs. in a dose-dependent manner. Cytokines levels (IL-6 and IL-8) in media were analyzed in accordance with the manufacturer's specification (BD Biosciences Pharmingen, San Diego, Calif., USA).
(§2) To assess whether IPS-07004 inhibits the expression of IL-6 and IL-8, which play a critical role in asthma pathology, ELISA of the cytokines in A549 cells was employed.

[1] = tested on: TSLP (Thymic Stromal Lymphopoietin); test: TSLP expression in DNCB mice; format: in vivo; settings: DNCB (2,4-dinitrochlorobenzene) mice; FIG. 7
[2] = tested on: TSLP (Thymic Stromal Lymphopoietin); test: TSLP expression in HMC-1 cells; format: cell-based, human; settings: FIG. 7
IL-8 = test: ELISA of IL-8 in A549 cells induced by LPS or IL-1beta; format: cell-based, human; settings: dose-dependent
Experimental: as §1, §2

MPTP-injected mice = test: MPTP-induced Parkinson's disease mice (pole test, TH, IL-1b); format: in vivo
Experimental: For 1-methyl-4-phenyl-1,2,3,6-tetrahydropyridine (MPTP) intoxication, the mice received four intraperitoneal (i.p.) injections of MPTP-HCl (20 mg/kg, free base in saline; Sigma-Aldrich, St. Louis, Mo.) dissolved in PBS at 2 h intervals. Twelve hours after the last MPTP injection, the MPTP-injected mice were received IPS-07004, Montelukast, or IPS-07005 once daily through p.o. administrations.
To examine the effect of IPS-07004 on abnormal behavior of PD mice, Pole test (T-turn and T-LA time) was carried out. PD was induced in mice treated with MPTP (20 mg/kg, I.P) and the mice were administered with IPS-07004 at a dose of 10 mg/kg. And then pole test was performed in the mice. which can measure bradykinesia, a hallmark of Parkinson's disease. The T-turn measures the time the black mouse turns down from the top of the pole. IPS-07004 reduced the T-turn and T-LA time compared with MPTP-treated control group and L-Dopa-treated group, as shown in FIG. 18.

[3] = tested on: A549 lung carcinoma cells; test: In vitro cell viability assay (MTT); format: cell-based, human; settings: IPS-07004 for 24 hrs, FIG. 1
Experimental: A549 lung carcinoma cells (1×10^3/well) were seeded on a 96-well plate for 16 hrs. After starvation for 24 hrs., the cells were pretreated with LPS or IL-1b for 4 hrs. The cells were then treated with IPS-07004 for 24 hrs. in a dose-dependent manner. After 48 hrs. of incubation, MTT [3-(4,5-dimethylthiazol-2-yl)-2,5-diphenyl-tetrazolium bromide] solution (5 mg/ml) was added to each well in an amount of 1/10 of total volume, and the cells were incubated for 2 hrs. at 37° C.
To examine the survival rate for A549 cells treated with IPS-07004, an in vitro cell viability assay was performed using MTT.

[4] = Mast cell number and serum IgE level; format: in vivo; settings: FIG. 8
human Caspase-1 = target: T1, human Caspase-1 (Homo sapiens, UniProt P29466); test: Caspase-1 activity in HMC-1 cell-based assay; settings: HMC-1 cells; FIG. 7, FIG. 9
T1 construct: endogenous in cells; host or cells: HMC-1 (human mast cell line)
T1 sequence (P29466 120-404): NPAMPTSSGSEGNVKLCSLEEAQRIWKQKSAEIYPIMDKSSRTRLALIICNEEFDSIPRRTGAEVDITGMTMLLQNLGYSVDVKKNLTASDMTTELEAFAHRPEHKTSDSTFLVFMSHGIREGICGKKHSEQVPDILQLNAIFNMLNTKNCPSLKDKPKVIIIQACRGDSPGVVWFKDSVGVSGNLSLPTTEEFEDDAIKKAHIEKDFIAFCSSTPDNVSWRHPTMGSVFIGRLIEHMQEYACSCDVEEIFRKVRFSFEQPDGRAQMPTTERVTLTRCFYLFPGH
Description: Using HMC-1 (human mast cell line) cell-based assay, IPS-07005 ((IPS-07004+Montelukast) inhibited the activity of Caspase-1, a critical component of inflammasome, to suppress the conversion of Pro-TSLP, IL-1beta, and -IL-18 to active forms as shown in FIG. 9.

[5] = A549 cells induced by LPS, FIG. 2
[6] = MPTP (20 mg/kg, I.P) mice, 10 mg/kg, compared with MPTP-treated control group and L-Dopa-treated group, FIG. 18

Structure (SMILES)	number of goblet cells (PAS staining of lung sections) (OVA-challenged mice; high dose of Montelukast, versus OVA-challenged group, FIGS. 15A and 15B)	expression level of IL-6 (IL-6; A549 cells induced by IL-1beta)	expression level of IL-6 (IL-6; [5])	eosinophil number in BALF (OVA-challenged mice; compared with the OVA-challenged group, FIGS. 13B, 13C)	TSLP expression [1]	TSLP expression [2]	expression level of IL-8 (IL-8; A549 cells induced by IL-1beta)	expression level of IL-8 (IL-8; [5])	Pole test T-LA time (MPTP-injected mice; [6])	Pole test T-turn time (MPTP-injected mice; [6])	tyrosine hydroxylase (TH) level in striatum and Substantia nigra (immunohistochemistry) (MPTP-injected mice; PD mice brain, compared with MPTP-treated control group and L-Dopa-treated group, FIG. 19)	IL-1b expression in PD brain (MPTP-injected mice; PD mice, FIG. 20)	viability of A549 cells (MTT) ([3]; cells induced by IL-1beta)	viability of A549 cells (MTT) ([3]; cells induced by LPS)	mast cell number [4]	serum IgE level [4]	Caspase-1 activity (human Caspase-1)
CC(C)(O)c1ccccc1CC[C@@H](SCC1(CC(=O)O)CC1)c1cccc(/C=C/c2ccc3ccc(Cl)cc3n2)c1 [Montelukast, montelukast]	significantly lower																
[H]/N=C(\N/C(=N/[H])Nc1ccc(Cl)cc1)NC(C)C [IPS-07004, proguanil]		reduced	reduced	decreased	inhibitory effect	inhibitory effect	reduced	reduced	reduced	reduced	decreased	reduced	little or no effect	little or no effect	inhibitory effect	inhibitory effect	inhibitory effect; also recorded: inhibited
